System: A. baumannii clinical isolate LAC 17
Assay: Antibiotic susceptibility profile
Assay type: cell-based, Acinetobacter baumannii
Parameters: key: Resistance; Intermediate; Susceptible
Details: not given
Description: (§1) We obtained over thirty clinical isolates of A. baumannii from nosocomial infections in New York City and Los Angeles. […] Only antibiotics with breakpoints for A. baumannii were used. […] Isolates LA 01 to 20 were acquired from Los Angels County while NY-A to NY-H were obtained from New York City.
(§2) Antibiotic susceptibility profiles of clinical isolates of A. baumannii and reference strains. R, I, and S denote Resistance, Intermediate and Susceptible, respectively. Genetic Profiling of Clinical Isolates of A. baumannii

SMILES	Antibiotic susceptibility
CC(C)(O/N=C(\C(=O)N[C@@H]1C(=O)N2C(C(=O)[O-])=C(C[n+]3ccccc3)CS[C@H]12)c1csc(N)n1)C(=O)O [CAZ, Ceftazidime]	R

System: A. baumannii clinical isolate LAC 05
Assay: Antibiotic susceptibility profile
Assay type: cell-based, Acinetobacter baumannii
Parameters: key: Resistance; Intermediate; Susceptible
Details: not given
Description: as §1, §2

SMILES	Antibiotic susceptibility
CC(C)(O/N=C(\C(=O)N[C@@H]1C(=O)N2C(C(=O)[O-])=C(C[n+]3ccccc3)CS[C@H]12)c1csc(N)n1)C(=O)O [CAZ, Ceftazidime]	I

System: A. baumannii reference strain 19606
Assay: Antibiotic susceptibility profile
Assay type: cell-based, Acinetobacter baumannii
Parameters: key: Resistance; Intermediate; Susceptible
Details: strain 19606 (ATCC)
Description: as §1, §2

SMILES	Antibiotic susceptibility
CC(C)(O/N=C(\C(=O)N[C@@H]1C(=O)N2C(C(=O)[O-])=C(C[n+]3ccccc3)CS[C@H]12)c1csc(N)n1)C(=O)O [CAZ, Ceftazidime]	S

System: A. baumannii clinical isolate LAC 13
Assay: Antibiotic susceptibility profile
Assay type: cell-based, Acinetobacter baumannii
Parameters: key: Resistance; Intermediate; Susceptible
Details: not given
Description: as §1, §2

SMILES	Antibiotic susceptibility
CC(C)(O/N=C(\C(=O)N[C@@H]1C(=O)N2C(C(=O)[O-])=C(C[n+]3ccccc3)CS[C@H]12)c1csc(N)n1)C(=O)O [CAZ, Ceftazidime]	R

System: A. baumannii clinical isolate LAC 11
Assay: Antibiotic susceptibility profile
Assay type: cell-based, Acinetobacter baumannii
Parameters: key: Resistance; Intermediate; Susceptible
Details: not given
Description: as §1, §2

SMILES	Antibiotic susceptibility
CC(C)(O/N=C(\C(=O)N[C@@H]1C(=O)N2C(C(=O)[O-])=C(C[n+]3ccccc3)CS[C@H]12)c1csc(N)n1)C(=O)O [CAZ, Ceftazidime]	R

System: A. baumannii reference strain AYE
Assay: Antibiotic susceptibility profile
Assay type: cell-based, Acinetobacter baumannii
Parameters: key: Resistance; Intermediate; Susceptible
Details: not given
Description: as §1, §2

SMILES	Antibiotic susceptibility
CC(C)(O/N=C(\C(=O)N[C@@H]1C(=O)N2C(C(=O)[O-])=C(C[n+]3ccccc3)CS[C@H]12)c1csc(N)n1)C(=O)O [CAZ, Ceftazidime]	R

System: A. baumannii clinical isolate NY A
Assay: Antibiotic susceptibility profile
Assay type: cell-based, Acinetobacter baumannii
Parameters: key: Resistance; Intermediate; Susceptible
Details: not given
Description: as §1, §2

SMILES	Antibiotic susceptibility
CC(C)(O/N=C(\C(=O)N[C@@H]1C(=O)N2C(C(=O)[O-])=C(C[n+]3ccccc3)CS[C@H]12)c1csc(N)n1)C(=O)O [CAZ, Ceftazidime]	R

System: A. baumannii clinical isolate LAC 19
Assay: Antibiotic susceptibility profile
Assay type: cell-based, Acinetobacter baumannii
Parameters: key: Resistance; Intermediate; Susceptible
Details: not given
Description: as §1, §2

SMILES	Antibiotic susceptibility
CC(C)(O/N=C(\C(=O)N[C@@H]1C(=O)N2C(C(=O)[O-])=C(C[n+]3ccccc3)CS[C@H]12)c1csc(N)n1)C(=O)O [CAZ, Ceftazidime]	R

System: A. baumannii clinical isolate LAC 18
Assay: Antibiotic susceptibility profile
Assay type: cell-based, Acinetobacter baumannii
Parameters: key: Resistance; Intermediate; Susceptible
Details: not given
Description: as §1, §2

SMILES	Antibiotic susceptibility
CC(C)(O/N=C(\C(=O)N[C@@H]1C(=O)N2C(C(=O)[O-])=C(C[n+]3ccccc3)CS[C@H]12)c1csc(N)n1)C(=O)O [CAZ, Ceftazidime]	R

System: A. baumannii clinical isolate NY F
Assay: Antibiotic susceptibility profile
Assay type: cell-based, Acinetobacter baumannii
Parameters: key: Resistance; Intermediate; Susceptible
Details: not given
Description: as §1, §2

SMILES	Antibiotic susceptibility
CC(C)(O/N=C(\C(=O)N[C@@H]1C(=O)N2C(C(=O)[O-])=C(C[n+]3ccccc3)CS[C@H]12)c1csc(N)n1)C(=O)O [CAZ, Ceftazidime]	R

System: A. baumannii reference strain 17978
Assay: Antibiotic susceptibility profile
Assay type: cell-based, Acinetobacter baumannii
Parameters: key: Resistance; Intermediate; Susceptible
Details: strain 17978 (ATCC)
Description: as §1, §2

SMILES	Antibiotic susceptibility
CC(C)(O/N=C(\C(=O)N[C@@H]1C(=O)N2C(C(=O)[O-])=C(C[n+]3ccccc3)CS[C@H]12)c1csc(N)n1)C(=O)O [CAZ, Ceftazidime]	S

System: A. baumannii clinical isolate LAC 16
Assay: Antibiotic susceptibility profile
Assay type: cell-based, Acinetobacter baumannii
Parameters: key: Resistance; Intermediate; Susceptible
Details: not given
Description: as §1, §2

SMILES	Antibiotic susceptibility
CC(C)(O/N=C(\C(=O)N[C@@H]1C(=O)N2C(C(=O)[O-])=C(C[n+]3ccccc3)CS[C@H]12)c1csc(N)n1)C(=O)O [CAZ, Ceftazidime]	R

System: A. baumannii clinical isolate LAC 07
Assay: Antibiotic susceptibility profile
Assay type: cell-based, Acinetobacter baumannii
Parameters: key: Resistance; Intermediate; Susceptible
Details: not given
Description: as §1, §2

SMILES	Antibiotic susceptibility
CC(C)(O/N=C(\C(=O)N[C@@H]1C(=O)N2C(C(=O)[O-])=C(C[n+]3ccccc3)CS[C@H]12)c1csc(N)n1)C(=O)O [CAZ, Ceftazidime]	R

System: A. baumannii clinical isolate NY G
Assay: Antibiotic susceptibility profile
Assay type: cell-based, Acinetobacter baumannii
Parameters: key: Resistance; Intermediate; Susceptible
Details: not given
Description: as §1, §2

SMILES	Antibiotic susceptibility
CC(C)(O/N=C(\C(=O)N[C@@H]1C(=O)N2C(C(=O)[O-])=C(C[n+]3ccccc3)CS[C@H]12)c1csc(N)n1)C(=O)O [CAZ, Ceftazidime]	R

System: A. baumannii clinical isolate LAC 08
Assay: Antibiotic susceptibility profile
Assay type: cell-based, Acinetobacter baumannii
Parameters: key: Resistance; Intermediate; Susceptible
Details: not given
Description: as §1, §2

SMILES	Antibiotic susceptibility
CC(C)(O/N=C(\C(=O)N[C@@H]1C(=O)N2C(C(=O)[O-])=C(C[n+]3ccccc3)CS[C@H]12)c1csc(N)n1)C(=O)O [CAZ, Ceftazidime]	I

System: A. baumannii clinical isolate NY B
Assay: Antibiotic susceptibility profile
Assay type: cell-based, Acinetobacter baumannii
Parameters: key: Resistance; Intermediate; Susceptible
Details: not given
Description: as §1, §2

SMILES	Antibiotic susceptibility
CC(C)(O/N=C(\C(=O)N[C@@H]1C(=O)N2C(C(=O)[O-])=C(C[n+]3ccccc3)CS[C@H]12)c1csc(N)n1)C(=O)O [CAZ, Ceftazidime]	R

System: A. baumannii clinical isolate LAC 12
Assay: Antibiotic susceptibility profile
Assay type: cell-based, Acinetobacter baumannii
Parameters: key: Resistance; Intermediate; Susceptible
Details: not given
Description: as §1, §2

SMILES	Antibiotic susceptibility
CC(C)(O/N=C(\C(=O)N[C@@H]1C(=O)N2C(C(=O)[O-])=C(C[n+]3ccccc3)CS[C@H]12)c1csc(N)n1)C(=O)O [CAZ, Ceftazidime]	R

System: A. baumannii reference strain 15839
Assay: Antibiotic susceptibility profile
Assay type: cell-based, Acinetobacter baumannii
Parameters: key: Resistance; Intermediate; Susceptible
Details: strain 15839 (ATCC)
Description: as §1, §2

SMILES	Antibiotic susceptibility
CC(C)(O/N=C(\C(=O)N[C@@H]1C(=O)N2C(C(=O)[O-])=C(C[n+]3ccccc3)CS[C@H]12)c1csc(N)n1)C(=O)O [CAZ, Ceftazidime]	R

System: A. baumannii clinical isolate NY E
Assay: Antibiotic susceptibility profile
Assay type: cell-based, Acinetobacter baumannii
Parameters: key: Resistance; Intermediate; Susceptible
Details: not given
Description: as §1, §2

SMILES	Antibiotic susceptibility
CC(C)(O/N=C(\C(=O)N[C@@H]1C(=O)N2C(C(=O)[O-])=C(C[n+]3ccccc3)CS[C@H]12)c1csc(N)n1)C(=O)O [CAZ, Ceftazidime]	R

System: A. baumannii clinical isolate LAC 09
Assay: Antibiotic susceptibility profile
Assay type: cell-based, Acinetobacter baumannii
Parameters: key: Resistance; Intermediate; Susceptible
Details: not given
Description: as §1, §2

SMILES	Antibiotic susceptibility
CC(C)(O/N=C(\C(=O)N[C@@H]1C(=O)N2C(C(=O)[O-])=C(C[n+]3ccccc3)CS[C@H]12)c1csc(N)n1)C(=O)O [CAZ, Ceftazidime]	R

System: A. baumannii clinical isolate LAC 20
Assay: Antibiotic susceptibility profile
Assay type: cell-based, Acinetobacter baumannii
Parameters: key: Resistance; Intermediate; Susceptible
Details: not given
Description: as §1, §2

SMILES	Antibiotic susceptibility
CC(C)(O/N=C(\C(=O)N[C@@H]1C(=O)N2C(C(=O)[O-])=C(C[n+]3ccccc3)CS[C@H]12)c1csc(N)n1)C(=O)O [CAZ, Ceftazidime]	R

System: A. baumannii clinical isolate LAC 03
Assay: Antibiotic susceptibility profile
Assay type: cell-based, Acinetobacter baumannii
Parameters: key: Resistance; Intermediate; Susceptible
Details: not given
Description: as §1, §2

SMILES	Antibiotic susceptibility
CC(C)(O/N=C(\C(=O)N[C@@H]1C(=O)N2C(C(=O)[O-])=C(C[n+]3ccccc3)CS[C@H]12)c1csc(N)n1)C(=O)O [CAZ, Ceftazidime]	R

System: A. baumannii clinical isolate NY H
Assay: Antibiotic susceptibility profile
Assay type: cell-based, Acinetobacter baumannii
Parameters: key: Resistance; Intermediate; Susceptible
Details: not given
Description: as §1, §2

SMILES	Antibiotic susceptibility
CC(C)(O/N=C(\C(=O)N[C@@H]1C(=O)N2C(C(=O)[O-])=C(C[n+]3ccccc3)CS[C@H]12)c1csc(N)n1)C(=O)O [CAZ, Ceftazidime]	R

System: A. baumannii clinical isolate LAC 01
Assay: Antibiotic susceptibility profile
Assay type: cell-based, Acinetobacter baumannii
Parameters: key: Resistance; Intermediate; Susceptible
Details: not given
Description: as §1, §2

SMILES	Antibiotic susceptibility
CC(C)(O/N=C(\C(=O)N[C@@H]1C(=O)N2C(C(=O)[O-])=C(C[n+]3ccccc3)CS[C@H]12)c1csc(N)n1)C(=O)O [CAZ, Ceftazidime]	R

System: A. baumannii clinical isolate LAC 02
Assay: Antibiotic susceptibility profile
Assay type: cell-based, Acinetobacter baumannii
Parameters: key: Resistance; Intermediate; Susceptible
Details: not given
Description: as §1, §2

SMILES	Antibiotic susceptibility
CC(C)(O/N=C(\C(=O)N[C@@H]1C(=O)N2C(C(=O)[O-])=C(C[n+]3ccccc3)CS[C@H]12)c1csc(N)n1)C(=O)O [CAZ, Ceftazidime]	R

System: A. baumannii clinical isolate LAC 10
Assay: Antibiotic susceptibility profile
Assay type: cell-based, Acinetobacter baumannii
Parameters: key: Resistance; Intermediate; Susceptible
Details: not given
Description: as §1, §2

SMILES	Antibiotic susceptibility
CC(C)(O/N=C(\C(=O)N[C@@H]1C(=O)N2C(C(=O)[O-])=C(C[n+]3ccccc3)CS[C@H]12)c1csc(N)n1)C(=O)O [CAZ, Ceftazidime]	R

System: A. baumannii clinical isolate LAC 06
Assay: Antibiotic susceptibility profile
Assay type: cell-based, Acinetobacter baumannii
Parameters: key: Resistance; Intermediate; Susceptible
Details: not given
Description: as §1, §2

SMILES	Antibiotic susceptibility
CC(C)(O/N=C(\C(=O)N[C@@H]1C(=O)N2C(C(=O)[O-])=C(C[n+]3ccccc3)CS[C@H]12)c1csc(N)n1)C(=O)O [CAZ, Ceftazidime]	S

System: A. baumannii clinical isolate LAC 14
Assay: Antibiotic susceptibility profile
Assay type: cell-based, Acinetobacter baumannii
Parameters: key: Resistance; Intermediate; Susceptible
Details: not given
Description: as §1, §2

SMILES	Antibiotic susceptibility
CC(C)(O/N=C(\C(=O)N[C@@H]1C(=O)N2C(C(=O)[O-])=C(C[n+]3ccccc3)CS[C@H]12)c1csc(N)n1)C(=O)O [CAZ, Ceftazidime]	R

System: A. baumannii reference strain SDF
Assay: Antibiotic susceptibility profile
Assay type: cell-based, Acinetobacter baumannii
Parameters: key: Resistance; Intermediate; Susceptible
Details: not given
Description: as §1, §2

SMILES	Antibiotic susceptibility
CC(C)(O/N=C(\C(=O)N[C@@H]1C(=O)N2C(C(=O)[O-])=C(C[n+]3ccccc3)CS[C@H]12)c1csc(N)n1)C(=O)O [CAZ, Ceftazidime]	S

System: A. baumannii clinical isolate NY D
Assay: Antibiotic susceptibility profile
Assay type: cell-based, Acinetobacter baumannii
Parameters: key: Resistance; Intermediate; Susceptible
Details: not given
Description: as §1, §2

SMILES	Antibiotic susceptibility
CC(C)(O/N=C(\C(=O)N[C@@H]1C(=O)N2C(C(=O)[O-])=C(C[n+]3ccccc3)CS[C@H]12)c1csc(N)n1)C(=O)O [CAZ, Ceftazidime]	R

System: A. baumannii clinical isolate LAC 15
Assay: Antibiotic susceptibility profile
Assay type: cell-based, Acinetobacter baumannii
Parameters: key: Resistance; Intermediate; Susceptible
Details: not given
Description: as §1, §2

SMILES	Antibiotic susceptibility
CC(C)(O/N=C(\C(=O)N[C@@H]1C(=O)N2C(C(=O)[O-])=C(C[n+]3ccccc3)CS[C@H]12)c1csc(N)n1)C(=O)O [CAZ, Ceftazidime]	R

System: A. baumannii clinical isolate NY C
Assay: Antibiotic susceptibility profile
Assay type: cell-based, Acinetobacter baumannii
Parameters: key: Resistance; Intermediate; Susceptible
Details: not given
Description: as §1, §2

SMILES	Antibiotic susceptibility
CC(C)(O/N=C(\C(=O)N[C@@H]1C(=O)N2C(C(=O)[O-])=C(C[n+]3ccccc3)CS[C@H]12)c1csc(N)n1)C(=O)O [CAZ, Ceftazidime]	R

System: A. baumannii clinical isolate LAC 04
Assay: Antibiotic susceptibility profile
Assay type: cell-based, Acinetobacter baumannii
Parameters: key: Resistance; Intermediate; Susceptible
Details: not given
Description: as §1, §2

SMILES	Antibiotic susceptibility
CC(C)(O/N=C(\C(=O)N[C@@H]1C(=O)N2C(C(=O)[O-])=C(C[n+]3ccccc3)CS[C@H]12)c1csc(N)n1)C(=O)O [CAZ, Ceftazidime]	R
